Results from US11753407B2, “Compounds for treating spinal muscular atrophy” (PTC Therapeutics, Inc., priority 2012, dated 2023).

How the values were obtained:
[1] = tested on: SMN2 minigene mRNA (SMN2-A minigene) in HEK293H cells; test: SMN2 minigene mRNA splicing RT-qPCR assay in cultured cells; assay type: cell-based, human; conditions: Homo sapiens, HEK293-H; concentration increasing full length SMN2 mRNA 1.5-fold relative to vehicle-treated cells; HEK293H cells with SMN2-A minigene, 24 hours, 7-point concentration data; read-out: EC1.5x for production of full length SMN2 mRNA
In short: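 Potency reflects the concentration that lifts full-length SMN2 minigene mRNA 1.5-fold above vehicle in stably transfected HEK293H cells after 24 h of treatment. Transcript abundance came from RT-qPCR as (1+E)^−Ct, normalized to GAPDH; endogenous SMN1/SMN2 are not detected.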

[2] = tested on: Smn protein in SMA patient fibroblast cells (GM03813); test: Smn protein assay in cultured cells (SMN HTRF); assay type: cell-based, human; conditions: SMA patient fibroblast cells, 48 hours; for EC1.5x for Smn protein expression: 7-point concentration curve, SMN HTRF, concentration producing 1.5 times Smn protein vs DMSO vehicle control; for maximum fold (Fold) increase of Smn protein: 7-point concentration data, fold relative to vehicle control
In short: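 Smn protein abundance in treated SMA fibroblasts was measured by HTRF after 48 h compound exposure. The reported EC1.5× is the concentration producing 1.5 times vehicle Smn levels.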

SMILES	melting point [°C]	EC (1.5-fold increase) [1] [µM]	EC1.5x for Smn protein expression [2]	maximum fold (Fold) increase of Smn protein [2]
Cc1cn2cc(-c3cc(=O)n4nc(C5CCN(C)CC5)ccc4n3)cc(Cl)c2n1 [Compound 524, 2-(8-chloro-2-methylimidazo[1,2-a]pyridin-6-yl)-7-(1-methylpiperidin-4-yl)-4H-pyrimido[1,2-b]pyridazin-4-one]	289 to 291	0.1 to 0.3	*** (an EC1.5× between >0.3 μM and ≤1 μM is indicated by three stars (***))	***** (a fold increase >1.65 is indicated by five stars (*****))
CCN1CCC(c2ccc3nc(-c4cc(Cl)c5nc(C)cn5c4)cc(=O)n3n2)CC1 [Compound 525, 2-(8-chloro-2-methylimidazo[1,2-a]pyridin-6-yl)-7-(1-ethylpiperidin-4-yl)-4H-pyrimido[1,2-b]pyridazin-4-one]	284 to 286	0.1 to 0.3	*** (an EC1.5× between >0.3 μM and ≤1 μM is indicated by three stars (***))	***** (a fold increase >1.65 is indicated by five stars (*****))
Cc1cn2cc(-c3cc(=O)n4nc(C5CCN(CCO)CC5)ccc4n3)cc(Cl)c2n1 [Compound 526, 2-(8-chloro-2-methylimidazo[1,2-a]pyridin-6-yl)-7-[1-(2-hydroxyethyl)piperidin-4-yl]-4H-pyrimido[1,2-b]pyridazin-4-one]	255 to 257	0.3 to 1	** (an EC1.5× between >1 μM and ≤3 μM is indicated by two stars (**))	***** (a fold increase >1.65 is indicated by five stars (*****))
Cc1cc2cc(-c3cc(=O)n4cc(N5C[C@@H](C)N[C@@H](C)C5)ccc4n3)oc2c(C)n1 [Compound 527, 2-(5,7-dimethylfuro[2,3-c]pyridin-2-yl)-7-[(3R,5S)-3,5-dimethylpiperazin-1-yl]-4H-pyrido[1,2-a]pyrimidin-4-one]	260 to 262	< 0.1	**** (an EC1.5x≤0.3 μM is indicated by four stars (****))	***** (a fold increase >1.65 is indicated by five stars (*****))
Cc1cc2cc(-c3cc(=O)n4cc(N5CCC(N(C)C)CC5)ccc4n3)oc2c(C)n1 [Compound 528, 7-[4-(dimethylamino)piperidin-1-yl]-2-(5,7-dimethylfuro[2,3-c]pyridin-2-yl)-4H-pyrido[1,2-a]pyrimidin-4-one]	200 to 202	< 0.1	**** (an EC1.5x≤0.3 μM is indicated by four stars (****))	**** (a fold increase between >1.5 and ≤1.65 is indicated by four stars (****))
Cc1cc2cc(-c3cc(=O)n4cc(N5CCN(CCO)CC5)ccc4n3)oc2c(C)n1 [Compound 529, 2-(5,7-dimethylfuro[2,3-c]pyridin-2-yl)-7-[4-(2-hydroxyethyl)piperazin-1-yl]-4H-pyrido[1,2-a]pyrimidin-4-one]	256 to 258	< 0.1	*** (an EC1.5× between >0.3 μM and ≤1 μM is indicated by three stars (***))	***** (a fold increase >1.65 is indicated by five stars (*****))
Cc1cn2nc(-c3cc(=O)n4cc(C5CCN(CCO)CC5)ccc4n3)cc2c(C)n1 [Compound 530, 2-(4,6-dimethylpyrazolo[1,5-a]pyrazin-2-yl)-7-[1-(2-hydroxyethyl)piperidin-4-yl]-4H-pyrido[1,2-a]pyrimidin-4-one]	228 to 230	< 0.1	**** (an EC1.5x≤0.3 μM is indicated by four stars (****))	***** (a fold increase >1.65 is indicated by five stars (*****))
Cc1cn2nc(-c3cc(=O)n4cc(N5CCN(CCO)CC5)ccc4n3)cc2c(C)n1 [Compound 531, 2-(4,6-dimethylpyrazolo[1,5-a]pyrazin-2-yl)-7-[4-(2-hydroxyethyl)piperazin-1-yl]-4H-pyrido[1,2-a]pyrimidin-4-one]	246 to 248	0.1 to 0.3	*** (an EC1.5× between >0.3 μM and ≤1 μM is indicated by three stars (***))	***** (a fold increase >1.65 is indicated by five stars (*****))
Cc1cn2nc(-c3cc(=O)n4cc(N5CCN(CCO)[C@H](C)C5)ccc4n3)cc2c(C)n1 [Compound 532, 2-(4,6-dimethylpyrazolo[1,5-a]pyrazin-2-yl)-7-[(3R)-4-(2-hydroxyethyl)-3-methylpiperazin-1-yl]-4H-pyrido[1,2-a]pyrimidin-4-one]	238 to 240	< 0.1	**** (an EC1.5x≤0.3 μM is indicated by four stars (****))	***** (a fold increase >1.65 is indicated by five stars (*****))
Cc1cn2cc(-c3cc(=O)n4cc(N5CCN(C6CC6)[C@@H](C)C5)ccc4n3)cc(Cl)c2n1 [Compound 535, 2-(8-chloro-2-methylimidazo[1,2-a]pyridin-6-yl)-7-[(3S)-4-cyclopropyl-3-methylpiperazin-1-yl]-4H-pyrido[1,2-a]pyrimidin-4-one]	253 to 257	< 0.1	*** (an EC1.5× between >0.3 μM and ≤1 μM is indicated by three stars (***))	***** (a fold increase >1.65 is indicated by five stars (*****))
Cc1cn2cc(-c3cc(=O)n4cc(N5CCN(C6CCC6)[C@@H](C)C5)ccc4n3)cc(Cl)c2n1 [Compound 536, 2-(8-chloro-2-methylimidazo[1,2-a]pyridin-6-yl)-7-[(3S)-4-cyclobutyl-3-methylpiperazin-1-yl]-4H-pyrido[1,2-a]pyrimidin-4-one]	228 to 232	< 0.1	**** (an EC1.5x≤0.3 μM is indicated by four stars (****))	**** (a fold increase between >1.5 and ≤1.65 is indicated by four stars (****))

Second part, led by results:

melting point [°C]	SMILES	EC (1.5-fold increase) [1] [µM]	EC1.5x for Smn protein expression [2]	maximum fold (Fold) increase of Smn protein [2]
179 to 183	COCCN1CCN(c2ccc3nc(-c4cc(Cl)c5nc(C)cn5c4)cc(=O)n3c2)C[C@@H]1C [Compound 533, 2-(8-chloro-2-methylimidazo[1,2-a]pyridin-6-yl)-7-[(3S)-4-(2-methoxyethyl)-3-methylpiperazin-1-yl]-4H-pyrido[1,2-a]pyrimidin-4-one]	< 0.1	*** (an EC1.5× between >0.3 μM and ≤1 μM is indicated by three stars (***))	***** (a fold increase >1.65 is indicated by five stars (*****))
201 to 205	Cc1cn2cc(-c3cc(=O)n4cc(N5CCN(CCOCCO)[C@@H](C)C5)ccc4n3)cc(Cl)c2n1 [Compound 534, 2-(8-chloro-2-methylimidazo[1,2-a]pyridin-6-yl)-7-{(3S)-4-[2-(2-hydroxyethoxy)ethyl]-3-methylpiperazin-1-yl}-4H-pyrido[1,2-a]pyrimidin-4-one]	< 0.1	**** (an EC1.5x≤0.3 μM is indicated by four stars (****))	***** (a fold increase >1.65 is indicated by five stars (*****))
228 to 234	Cc1cn2cc(-c3cc(=O)n4cc(N5CCN(CCO)[C@@H](C)C5)ccc4n3)cc(Cl)c2n1 [Compound 537, 2-(8-chloro-2-methylimidazo[1,2-a]pyridin-6-yl)-7-[(3S)-4-(2-hydroxyethyl)-3-methylpiperazin-1-yl]-4H-pyrido[1,2-a]pyrimidin-4-one]	< 0.1	**** (an EC1.5x≤0.3 μM is indicated by four stars (****))	**** (a fold increase between >1.5 and ≤1.65 is indicated by four stars (****))
215 to 219	COCCN1CCN(c2ccc3nc(-c4cc(F)c5nc(C)cn5c4)cc(=O)n3c2)C[C@@H]1C [Compound 538, 2-(8-fluoro-2-methylimidazo[1,2-a]pyridin-6-yl)-7-[(3S)-4-(2-methoxyethyl)-3-methylpiperazin-1-yl]-4H-pyrido[1,2-a]pyrimidin-4-one]	< 0.1	*** (an EC1.5× between >0.3 μM and ≤1 μM is indicated by three stars (***))	**** (a fold increase between >1.5 and ≤1.65 is indicated by four stars (****))
270 to 274	Cc1cn2cc(-c3cc(=O)n4cc(N5CCN(CCO)[C@@H](C)C5)ccc4n3)cc(F)c2n1 [Compound 539, 2-(8-fluoro-2-methylimidazo[1,2-a]pyridin-6-yl)-7-[(3S)-4-(2-hydroxyethyl)-3-methylpiperazin-1-yl]-4H-pyrido[1,2-a]pyrimidin-4-one]	< 0.1	**** (an EC1.5x≤0.3 μM is indicated by four stars (****))	**** (a fold increase between >1.5 and ≤1.65 is indicated by four stars (****))
